biological target: T1, human recombinant LPA2 expressed in CHO cells (Homo sapiens, UniProt Q9HBW0); assay: FLIPR calcium mobilization assay, LPA2 antagonism in CHO-hLPA2 cells; type: cell-based; settings: CHO-hLPA2 cells, inhibition of LPA EC80 Ca2+ response, 30 min pre-incubation; read-out: LPA2 IC50
T1 construct: expressed in transfected cells; host or cells: CHO (CHO-hLPA2 cell line)
Description: The effectiveness of compounds of the present invention as LPA2 antagonist can be determined at the human recombinant LPA2 expressed in CHO cells, using a FLIPR assay in 384 well format.
CHO-hLPA2 cell lines are cultured in a humidified incubator at 5% CO2 in DMEM/F-12 (1:1) MIXTURE with 2 mM Glutamax, supplemented with 10% of Foetal Bovine Serum, 1 mM Sodium Pyruvate, 11 mM Hepes and 1× Penicillin/Streptomycin. CHO hLPA2 cells are seeded into black walled clear-bottom 384-well plates (#781091, Greiner Bio-One GmbH) at a density of 7,500 cells per well in 50 μl culture media and grown overnight in a 37° C. humidified CO2-incubator. Serial dilutions (1:3 or 1:4, 11 points CRC) of compounds are performed in 100% DMSO at 200× the final concentration. The compounds are diluted 1:50 prior to the experiment with Assay Buffer (20 mM HEPES, 145 mM NaCl, 5 mM KCl, 5.5 mM glucose, 1 mM MgCl2 and 2 mM CaCl2, pH 7.4 containing 0.01% Pluronic F-127) to obtain a solution corresponding to […] the final concentration in the assay (4×, 2% DMSO). The final concentration of DMSO in the assay will be 0.5% in each well. Medium is removed by aspiration and cells are then incubated with 30 μl of a loading solution containing 5 μM of the cytoplasmic Ca2+ indicator Cal-520 AM in Assay Buffer containing 2.5 mM probenecid for 30 min at 37° C. incubator (cell loading). The loaded cell plates are transferred into the FLIPR instrument and calcium responses are monitored during the on-line addition protocols. For testing of compounds, after the cell loading, 10 μl/well of 4× antagonists' solution was added onto the cells. […] Intracellular peak fluorescence values subtracted by baseline fluorescence are exported and analysed to determine IC50 values, respectively. The calcium response is expressed as percentage of the maximal inhibition of the EC80 agonist response.
The raw data (peak height expressed as relative fluorescence units) are normalized and transformed into “percent of inhibition”. Curve fitting and pIC50 (−Log IC50) estimations are carried out using a four-parameter logistic model using XLfit Software.

T1 sequence (Q9HBW0 whole entry): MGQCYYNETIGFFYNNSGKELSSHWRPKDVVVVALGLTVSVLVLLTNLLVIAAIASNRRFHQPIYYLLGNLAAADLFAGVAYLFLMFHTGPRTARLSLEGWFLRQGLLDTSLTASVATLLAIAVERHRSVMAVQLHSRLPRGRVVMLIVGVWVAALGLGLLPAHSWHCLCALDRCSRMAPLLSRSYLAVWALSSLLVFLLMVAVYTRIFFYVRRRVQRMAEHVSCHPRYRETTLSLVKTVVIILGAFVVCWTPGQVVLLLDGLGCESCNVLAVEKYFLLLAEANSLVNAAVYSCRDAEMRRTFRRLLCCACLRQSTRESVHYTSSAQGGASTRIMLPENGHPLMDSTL

| IC50 | SMILES |
| --- | --- |
| 10 to 100 nM | C[C@@H](CN1CCN(S(=O)(=O)c2ccc(-c3ccon3)s2)CC1)Nc1ncnc2c(C(F)(F)F)cccc12 [Example 53, N-[(2S)-1-(4-{[5-(1,2-oxazol-3-yl)thiophen-2-yl]sulfonyl}piperazin-1-yl)propan-2-yl]-8-(trifluoromethyl)quinazolin-4-amine] |
| < 1000 nM | COCC(=O)Nc1nc(C)c(S(=O)(=O)N2CCN(C[C@H](C)Nc3ncnc4c(C(F)(F)F)cccc34)CC2)s1 [Example 25, 2-methoxy-N-[4-methyl-5-({4-[(2S)-2-{[8-(trifluoromethyl)quinazolin-4-yl]amino}propyl]piperazin-1-yl}sulfonyl)-1,3-thiazol-2-yl]acetamide] |
| 10 to 100 nM | CC(=O)Nc1ncc(S(=O)(=O)N2CCN(C[C@H](C)Nc3nc(C)nc4c(C(F)(F)F)cccc34)CC2)s1 [Example 13, N-[5-({4-[(2S)-2-{[2-methyl-8-(trifluoromethyl)quinazolin-4-yl]amino}propyl]piperazin-1-yl}sulfonyl)-1,3-thiazol-2-yl]acetamide] |
| < 1000 nM | C[C@@H](CN1CCN(S(=O)(=O)c2ccc(-c3ccn[nH]3)o2)CC1)Nc1ncnc2c(C(F)(F)F)cccc12 [Example 67, N-[(2S)-1-(4-{[5-(1H-pyrazol-5-yl)furan-2-yl]sulfonyl}piperazin-1-yl)propan-2-yl]-8-(trifluoromethyl)quinazolin-4-amine] |
| < 1000 nM | COC(=O)Nc1nc(C)c(S(=O)(=O)N2CCN(C[C@H](C)Nc3nc(C(F)(F)F)nc4ccccc34)CC2)s1 [Example 11, methyl N-[4-methyl-5-({4-[(2S)-2-{[2-(trifluoromethyl)quinazolin-4-yl]amino}propyl]piperazin-1-yl}sulfonyl)-1,3-thiazol-2-yl]carbamate] |
| 10 to 100 nM | COC(=O)Nc1nc(C)c(S(=O)(=O)N2CCN(C[C@H](C)Nc3ncnc4c(C(=O)N5CC6CC6C5)cccc34)CC2)s1 (mixture of isomers) [Example 87, methyl N-[5-({4-[(2S)-2-[(8-{3-azabicyclo[3.1.0]hexane-3-carbonyl}quinazolin-4-yl)amino]propyl]piperazin-1-yl}sulfonyl)-4-methyl-1,3-thiazol-2-yl]carbamate] |
| < 10 nM | Cc1noc(-c2ccc(S(=O)(=O)N3CCN(C[C@H](C)Nc4ncnc5c(C(=O)N6CCC[C@@H]6C)cccc45)CC3)s2)c1C (racemic) [Example 86, N-[(2S)-1-(4-{[5-(3,4-dimethyl-1,2-oxazol-5-yl)thiophen-2-yl]sulfonyl}piperazin-1-yl)propan-2-yl]-8-[(2S)-2-methylpyrrolidine-1-carbonyl]quinazolin-4-amine] |
| < 1000 nM | C[C@@H](CN1CCN(S(=O)(=O)c2ccc(Cl)c(Cl)c2)CC1)Nc1ncnc2c(Cl)cccc12 [Example 6, 8-chloro-N-[(2S)-1-[4-(3,4-dichlorobenzenesulfonyl)piperazin-1-yl]propan-2-yl]quinazolin-4-amine] |
| < 1000 nM | Cc1noc(-c2ccc(S(=O)(=O)N3CCN(C[C@H](C)Nc4ncnc5c(CN(C)C)cccc45)CC3)s2)c1C [Example 74, N-[(2S)-1-(4-{[5-(3,4-dimethyl-1,2-oxazol-5-yl)thiophen-2-yl]sulfonyl}piperazin-1-yl)propan-2-yl]-8-[(dimethylamino)methyl]quinazolin-4-amine] |
| 10 to 100 nM | COC(=O)Nc1nc(C)c(S(=O)(=O)N2CCN(C[C@H](C)Nc3nc(C)nc4c(C(F)(F)F)cccc34)CC2)s1 [Example 2, methyl N-[4-methyl-5-({4-[(2S)-2-{[2-methyl-8-(trifluoromethyl)quinazolin-4-yl]amino}propyl]piperazin-1-yl}sulfonyl)-1,3-thiazol-2-yl]carbamate] |
| < 1000 nM | COC(=O)Nc1nc(C)c(S(=O)(=O)N2CCN(C[C@H](C)Nc3nc(C4CC4)nc4ccccc34)CC2)s1 [Example 15, methyl N-[5-({4-[(2S)-2-[(2-cyclopropylquinazolin-4-yl)amino]propyl]piperazin-1-yl}sulfonyl)-4-methyl-1,3-thiazol-2-yl]carbamate] |
| 10 to 100 nM | COC(=O)Nc1nc(C)c(S(=O)(=O)N2CCN(C[C@H](C)Nc3ncnc4c(OC(F)(F)F)cccc34)CC2)s1 [Example 3, Methyl N-[4-methyl-5-({4-[(2S)-2-{[8-(trifluoromethoxy)quinazolin-4-yl]amino}propyl]piperazin-1-yl}sulfonyl)-1,3-thiazol-2-yl]carbamate] |
| < 10 nM | Cc1noc(-c2ccc(S(=O)(=O)N3CCN(C[C@H](C)Nc4ncnc5c(C(=O)N6CC7CC7C6)cccc45)CC3)s2)c1C (mixture of isomers) [Example 85, 8-{3-azabicyclo[3.1.0]hexane-3-carbonyl}-N-[(2S)-1-(4-{[5-(3,4-dimethyl-1,2-oxazol-5-yl)thiophen-2-yl]sulfonyl}piperazin-1-yl)propan-2-yl]quinazolin-4-amine] |
| < 1000 nM | COC(=O)Nc1ncc(S(=O)(=O)N2CCN(C[C@H](C)Nc3ncnc4c(C(F)(F)F)cccc34)CC2)s1 [Example 26, methyl N-[5-({4-[(2S)-2-{[8-(trifluoromethyl)quinazolin-4-yl]amino}propyl]piperazin-1-yl}sulfonyl)-1,3-thiazol-2-yl]carbamate] |
| < 1000 nM | CC(=O)Nc1ncc(S(=O)(=O)N2CCN(C[C@H](C)Nc3nc(C4CC4)nc4c(C)cccc34)CC2)s1 [Example 19, N-[5-({4-[(2S)-2-[(2-cyclopropyl-8-methylquinazolin-4-yl)amino]propyl]piperazin-1-yl}sulfonyl)-1,3-thiazol-2-yl]acetamide] |
| 10 to 100 nM | COC(=O)Nc1nc(C)c(S(=O)(=O)N2CCN(C[C@H](C)Nc3ncnc4c(Br)cccc34)CC2)s1 [Example 101, methyl N-[5-({4-[(2S)-2-[(8-bromoquinazolin-4-yl)amino]propyl]piperazin-1-yl}sulfonyl)-4-methyl-1,3-thiazol-2-yl]carbamate] |
| 10 to 100 nM | Cc1cc(-c2ccc(S(=O)(=O)N3CCN(C[C@H](C)Nc4ncnc5c(C(F)(F)F)cccc45)CC3)o2)on1 [Example 52, N-[(2S)-1-(4-{[5-(3-methyl-1,2-oxazol-5-yl)furan-2-yl]sulfonyl}piperazin-1-yl)propan-2-yl]-8-(trifluoromethyl)quinazolin-4-amine] |
| 10 to 100 nM | COC(=O)c1cccc2c(N[C@@H](C)CN3CCN(S(=O)(=O)c4cnc(NC(C)=O)s4)CC3)ncnc12 [Example 20, methyl 4-{[(2S)-1-{4-[(2-acetamido-1,3-thiazol-5-yl)sulfonyl]piperazin-1-yl}propan-2-yl]amino}quinazoline-8-carboxylate] |
| 10 to 100 nM | Cc1noc(-c2ccc(S(=O)(=O)N3CCN(C[C@H](C)Nc4ncnc5c(C(F)(F)F)cccc45)CC3)o2)c1C [Example 68, N-[(2S)-1-(4-{[5-(3,4-dimethyl-1,2-oxazol-5-yl)furan-2-yl]sulfonyl}piperazin-1-yl)propan-2-yl]-8-(trifluoromethyl)quinazolin-4-amine] |
| 10 to 100 nM | COC(=O)Nc1nc(C)c(S(=O)(=O)N2CCN(C[C@H](C)Nc3nc(C4CC4)nc4c(C)cccc34)CC2)s1 [Example 18, methyl N-[5-({4-[(2S)-2-[(2-cyclopropyl-8-methylquinazolin-4-yl)amino]propyl]piperazin-1-yl}sulfonyl)-4-methyl-1,3-thiazol-2-yl]carbamate] |
